Source: US9670172B2, “Heterocyclic compounds and methods of use” (Medivation Technologies, Inc., priority 2014, dated 2017)
Values after ≈ are worked out from the molar mass of the structure shown. Like-named read-outs stand apart in the source and are kept apart here.

Assays:
SREBP2 [1] = experiment: SREBP2 cleavage in HEPG2 cells (Western blot normalized to actin); format: cell-based; conditions: Homo sapiens, HepG2 cells, read-out: Average SREBP2 cleavage (% Inhibition, n = 3)
Description: Average SREBP2 cleavage in HEPG2 cells was measured in the presence of compounds disclosed in Table 1. HepG2 cells were seeded at 500,000 cells per well in 6-well plates in DMEM supplemented with 10% FBS. After 2 days, cells were treated with compounds (20 μM) for 1 day in DMEM without FBS. Western blots were normalized with respect to actin.
The results are shown in Table 3 as percent inhibition@20 μM, and in Table 4 as percent inhibition@5 μM.

SREBP2 [2] = experiment: as above; format: cell-based; conditions: Homo sapiens, several concentrations, FIG. 1
[3] = pKa by potentiometric and spectrophotometric methods (Pion, Inc.); format: physicochemical; conditions: two values, read-out: pKa experimentally obtained
Text: As has been described above, the inherent pKa(s) of molecules can be assessed by potentiometric methods known to the skilled artisan, typically UV spectrophotometry [see, for example, Julémont, et al. J. Med. Chem. (2002), 45, pp 5182-5185]. In-silico methods can be used as a predictive tool, and software is commercially available from, for example, ACD/Labs, Molecular Discovery, ChemAxon, and other vendors. […] The compounds provided herein contain several ionizable centers including, for example, the trifluoromethylsulfonamide nitrogen atom; the thiazole ring nitrogen atom; the “ring A” pyridine nitrogen atom, etc.
Other ionized forms are conceivable, but those presented here are a protonated form; a neutral or internal zwitterionic form; and an anionic form. Which form would exist is dependent upon the pH of the aqueous or physiological solution in which the compound is placed. […] These values are similar to those experimentally obtained under potentiometric and spectrophotometric methods [courtesy of Pion, Inc.], found to be 3.09 and 5.27. […] Based on the calculated/measured pKa values of the trifluoromethylsulfonamide containing compounds claimed herein, it is likely that at a pH of 6-8, these compounds will predominantly exist in the anionic form, with the above equilibrium lying to the right at higher pH values. […]

[4] = HepG2 cell viability by MTS; format: cell-based; conditions: human, HepG2 cells, 3 days, DMEM without FBS, MTS, read-out: Average Viability (% Inhibition, n = 3)
Description: (§1) For viability measurements, HepG2 cells were seeded at 5,000 cells per well in 96-well plates in DMEM supplemented with 10% FBS. After 1 day in culture, cells were treated with compounds (20 μM & 5 μM) for 3 days in DMEM without FBS. Viability was measured by MTS. Treatment with compounds (20 μM & 5 μM) was carried out in medium without FBS, and viability was measured by MTS. […]

HepG2 cells = experiment: HepG2 cell viability by MTS; format: cell-based; conditions: Homo sapiens, several concentrations, FIG. 1
Description: as §1

[5] = Solubility study at different pH (Pion, Inc.); format: physicochemical; conditions: aqueous buffer
Text: Other ionized forms are conceivable, but those presented here are a protonated form; a neutral or internal zwitterionic form; and an anionic form. Which form would exist is dependent upon the pH of the aqueous or physiological solution in which the compound is placed. […] These values are similar to those experimentally obtained under potentiometric and spectrophotometric methods [courtesy of Pion, Inc.], found to be 3.09 and 5.27. […] It is postulated that the more electronegative nature of the CF3 group results in a more highly acidic nature of the compound. Based on the calculated/measured pKa values of the trifluoromethylsulfonamide containing compounds claimed herein, it is likely that at a pH of 6-8, these compounds will predominantly exist in the anionic form, with the above equilibrium lying to the right at higher pH values. The anionic form renders the compound more aqueous soluble and therefore better absorbed. […] When a compound is dosed orally, most of the absorption occurs in the intestines where the pH ranges from 6-8.

[6] = PK parameters for representative compounds (i.v. and p.o.); conditions: in vivo; for half-life: read-out: Terminal t1/2 (converted)
Text: Standard PK parameters were collected in Mouse and Dog for Compound #37 in mouse (FIG. 4A) and dog (FIG. 4B).

SMILES: CC(C)Cc1cc(-c2nc(-c3ccc(NS(=O)(=O)C(F)(F)F)cc3Cl)cs2)ccn1 [Compound 37, N-(3-chloro-4-(2-(2-isobutylpyridin-4-yl)thiazol-4-yl)phenyl)-1,1,1-trifluoromethanesulfonamide]
- inhibition at 20 µM (SREBP2 [1]; 24 h, 20 μM, 1 day, DMEM without FBS): 94.6%
- inhibition at 5 µM (SREBP2 [1]): 75%
- IC50 (SREBP2 [2]): 4.6 µM
- pKa [3]: 3.09
- cytotoxicity at 3 days, 5 μM [4]: 94%
- cytotoxicity at 3 days, 20 μM ([4]; 20 μM): 95%
- IC50 (HepG2 cells): 2.15 µM
- solubility ([5]; pH 6.0): 13 µg/mL (≈ 27.3 µM)
- solubility ([5]; pH 7.0): 104 µg/mL (≈ 219 µM)
- solubility ([5]; pH 8.0): > 130 µg/mL

SMILES: O=S(=O)(Nc1ccc(-c2csc(-c3cccc4[nH]ccc34)n2)c(Cl)c1)C(F)(F)F [Compound 80, N-{3-chloro-4-[2-(1H-indol-4-yl)-1,3-thiazol-4-yl]phenyl}-1,1,1-trifluoromethanesulfonamide]
- inhibition at 5 µM (SREBP2 [1]): 90%
- cytotoxicity at 3 days, 5 μM [4]: 86%
- AUC(0-t) ([6]; iv, i.v. @ 2 mg/kg): 8.94 µM·h
- Cmax ([6]; iv, i.v. @ 2 mg/kg): 3.63 µM
- Vd ([6]; iv, i.v. @ 2 mg/kg): 1.72 L/kg
- clearance ([6]; iv, i.v. @ 2 mg/kg): 70.8 mL/min/kg
- half-life ([6]; iv, i.v. @ 2 mg/kg): 2.8 h
- AUC(0-t) ([6]; po, p.o. @ 10 mg/kg): 130 µM·h
- Cmax ([6]; po, p.o. @ 10 mg/kg): 20.6 µM
- Tmax ([6]; po, p.o. @ 10 mg/kg): 4 h
- bioavailability ([6]; po, p.o. @ 10 mg/kg): 291%
- half-life ([6]; po, p.o. @ 10 mg/kg): > 8 h

SMILES: O=S(=O)(Nc1ccc(-c2csc(-c3ccc4c(c3)CCO4)n2)c(Cl)c1)C(F)(F)F [Compound 82, N-{3-chloro-4-[2-(2,3-dihydro-1-benzofuran-5-yl)-1,3-thiazol-4-yl]phenyl}-1,1,1-trifluoromethanesulfonamide]
- inhibition at 5 µM (SREBP2 [1]): 77%
- cytotoxicity at 3 days, 5 μM [4]: 82%
- AUC(0-t) ([6]; iv, i.v. @ 2 mg/kg): 25.4 µM·h
- Cmax ([6]; iv, i.v. @ 2 mg/kg): 12.6 µM
- Vd ([6]; iv, i.v. @ 2 mg/kg): 0.719 L/kg
- clearance ([6]; iv, i.v. @ 2 mg/kg): 2.28 mL/min/kg
- half-life ([6]; iv, i.v. @ 2 mg/kg): 3.64 h
- AUC(0-t) ([6]; po, p.o. @ 10 mg/kg): 175 µM·h
- Cmax ([6]; po, p.o. @ 10 mg/kg): 25.8 µM
- Tmax ([6]; po, p.o. @ 10 mg/kg): 4 h
- bioavailability ([6]; po, p.o. @ 10 mg/kg): 138%
- half-life ([6]; po, p.o. @ 10 mg/kg): > 8 h

SMILES: O=S(=O)(Nc1ccc(-c2csc(-c3ccnc(N4CCCCC4)c3)n2)c(Cl)c1)C(F)(F)F [Compound 85, N-(3-chloro-4-{2-[2-(piperidin-1-yl)pyridin-4-yl]-1,3-thiazol-4-yl}phenyl)-1,1,1-trifluoromethanesulfonamide]
- inhibition at 5 µM (SREBP2 [1]): 82%
- cytotoxicity at 3 days, 5 μM [4]: 93%
- AUC(0-t) ([6]; iv, i.v. @ 2 mg/kg): 0.655 µM·h
- Cmax ([6]; iv, i.v. @ 2 mg/kg): 0.241 µM
- Vd ([6]; iv, i.v. @ 2 mg/kg): 27.3 L/kg
- clearance ([6]; iv, i.v. @ 2 mg/kg): 77.2 mL/min/kg
- half-life ([6]; iv, i.v. @ 2 mg/kg): 4.08 h
- AUC(0-t) ([6]; po, p.o. @ 10 mg/kg): 2.27 µM·h
- Cmax ([6]; po, p.o. @ 10 mg/kg): 0.45 µM
- Tmax ([6]; po, p.o. @ 10 mg/kg): 2 h
- bioavailability ([6]; po, p.o. @ 10 mg/kg): 69.3%
- half-life ([6]; po, p.o. @ 10 mg/kg): > 8 h

SMILES: O=S(=O)(Nc1ccc(-c2csc(-c3cccc(N4CCCCC4)c3)n2)c(Cl)c1)C(F)(F)F [Compound 88, N-(3-chloro-4-{2-[3-(piperidin-1-yl)phenyl]-1,3-thiazol-4-yl}phenyl)-1,1,1-trifluoromethanesulfonamide]
- inhibition at 5 µM (SREBP2 [1]): 90%
- cytotoxicity at 3 days, 5 μM [4]: 19%
- AUC(0-t) ([6]; iv, i.v. @ 2 mg/kg): 10.6 µM·h
- Cmax ([6]; iv, i.v. @ 2 mg/kg): 3.44 µM
- Vd ([6]; iv, i.v. @ 2 mg/kg): 1.45 L/kg
- clearance ([6]; iv, i.v. @ 2 mg/kg): 5 mL/min/kg
- half-life ([6]; iv, i.v. @ 2 mg/kg): 3.35 h
- AUC(0-t) ([6]; po, p.o. @ 10 mg/kg): 51.5 µM·h
- Cmax ([6]; po, p.o. @ 10 mg/kg): 8.41 µM
- Tmax ([6]; po, p.o. @ 10 mg/kg): 2 h
- bioavailability ([6]; po, p.o. @ 10 mg/kg): 96.8%
- half-life ([6]; po, p.o. @ 10 mg/kg): > 8 h
